Where “and” joins values, the source holds several entries; their conditions need not be identical. Identical values can stand only once. Calls of active or inactive are those of the source. The rule behind the calls is not given here.
Tested on: rodent lifetime carcinogenesis bioassay, tumor incidence TD50
Assay: chronic cancer bioassays in animals – CPDB, compiled studies (AID 1745844)

## CCNC(=S)NCC
mouse, strain B6C3F1, females, in feed, site: any site (literature study), lesion: several types, types named in the paper, dosed 103 weeks, study length 104 weeks
  carcinogen call: negative (inactive)
mouse, strain B6C3F1, females, in feed, site: liver, lesion: hepatocellular adenoma + hepatocellular carcinoma + neoplastic nodule, dosed 103 weeks, study length 104 weeks
  TD50: 687 mg/kg/day
mouse, strain B6C3F1, males, in feed, site: any site (literature study), lesion: several types, types named in the paper, dosed 103 weeks, study length 104 weeks
  carcinogen call: negative (inactive)
rat, strain F344/DuCrj, males, in feed, site: thyroid gland, lesion: follicular-cell carcinoma, dosed 52 weeks, study length 52 weeks
  TD50: 28.1 mg/kg/day
rat, strain Fischer 344, females, in feed, site: any site (literature study), lesion: several types, types named in the paper, dosed 104 weeks, study length 104 weeks
  TD50: 21.5 mg/kg/day
rat, strain Fischer 344, females, in feed, site: thyroid gland, lesion: follicular-cell adenoma + follicular-cell carcinoma, dosed 104 weeks, study length 104 weeks
  TD50: 23.8 mg/kg/day
rat, strain Fischer 344, females, in feed, site: thyroid gland, lesion: follicular-cell carcinoma, dosed 104 weeks, study length 104 weeks
  TD50: 57.9 mg/kg/day
rat, strain Fischer 344, males, in feed, site: any site (literature study), lesion: several types, types named in the paper, dosed 103 weeks, study length 104 weeks
  TD50: 12.9 mg/kg/day
rat, strain Fischer 344, males, in feed, site: thyroid gland, lesion: follicular-cell adenoma + follicular-cell carcinoma, dosed 103 weeks, study length 104 weeks
  TD50: 24.3 mg/kg/day
rat, strain Fischer 344, males, in feed, site: thyroid gland, lesion: follicular-cell carcinoma, dosed 103 weeks, study length 104 weeks
  TD50: 33.6 mg/kg/day

## Cc1cc(N)ccc1N
mouse, strain B6C3F1, females, in feed, site: any site (literature study), lesion: several types, types named in the paper, dosed 78 weeks, study length 94 weeks
  TD50: 33200 mg/kg/day
mouse, strain B6C3F1, females, in feed, site: liver, lesion: hepatocellular adenoma + hepatocellular carcinoma + neoplastic nodule, dosed 78 weeks, study length 94 weeks
  TD50: 1960 mg/kg/day
mouse, strain B6C3F1, females, in feed, site: lung, lesion: alveolar/bronchiolar adenoma + alveolar/bronchiolar carcinoma, dosed 78 weeks, study length 94 weeks
  TD50: 364 mg/kg/day (inactive) and 364 mg/kg/day
mouse, strain B6C3F1, males, in feed, site: any site (literature study), lesion: several types, types named in the paper, dosed 78 weeks, study length 94 weeks
  TD50: 272 mg/kg/day (inactive)
mouse, strain B6C3F1, males, in feed, site: liver, lesion: hepatocellular adenoma + hepatocellular carcinoma + neoplastic nodule, dosed 78 weeks, study length 94 weeks
  TD50: 288 mg/kg/day
mouse, strain B6C3F1, males, in feed, site: lung, lesion: alveolar/bronchiolar adenoma + alveolar/bronchiolar carcinoma, dosed 78 weeks, study length 94 weeks
  TD50: 3560 mg/kg/day
rat, strain Fischer 344, females, in feed, site: any site (literature study), lesion: several types, types named in the paper, dosed 78 weeks, study length 107 weeks
  carcinogen call: negative (inactive)
rat, strain Fischer 344, males, in feed, site: any site (literature study), lesion: several types, types named in the paper, dosed 78 weeks, study length 106 weeks
  carcinogen call: negative (inactive)
rat, strain Fischer 344, males, in feed, site: liver, lesion: hepatocellular adenoma + hepatocellular carcinoma + neoplastic nodule, dosed 78 weeks, study length 106 weeks
  TD50: 233 mg/kg/day

## C#C[C@]1(O)CC[C@H]2[C@@H]3CCC4=C(CCC(=O)C4)[C@H]3CC[C@@]21C
mouse, strain (C3H x RIII)F1 (MTV+), females, in feed, site: mammary tissue, wider than the gland, lesion: one or several types, types not named, dosed 104 weeks, study length 104 weeks
  TD50: 2.13 mg/kg/day
mouse, strain CFLP, females, in feed, site: liver, lesion: hepatocellular tumor, dosed 78 weeks, study length 78 weeks
  TD50: 49.1 mg/kg/day (inactive)
mouse, strain CFLP, males, in feed, site: liver, lesion: hepatocellular tumor, dosed 78 weeks, study length 78 weeks
  carcinogen call: negative (inactive)
mouse, strain Swiss Webster, females, by gavage, site: liver, lesion: hepatocellular tumor, dosed 65 weeks, study length 80 weeks
  carcinogen call: negative (inactive)

## Nc1ccc(O)c(N)c1
mouse, strain B6C3F1, females, by gavage, site: any site (literature study), lesion: several types, types named in the paper, dosed 103 weeks, study length 104 weeks
  carcinogen call: negative (inactive)
mouse, strain B6C3F1, females, by gavage, site: liver, lesion: hepatocellular adenoma + hepatocellular carcinoma + neoplastic nodule, dosed 103 weeks, study length 104 weeks
  TD50: 2890 mg/kg/day
mouse, strain B6C3F1, females, by gavage, site: lung, lesion: alveolar/bronchiolar adenoma + alveolar/bronchiolar carcinoma, dosed 103 weeks, study length 104 weeks
  TD50: 239 mg/kg/day
mouse, strain B6C3F1, males, by gavage, site: kidney, lesion: tubule adenoma, dosed 103 weeks, study length 104 weeks
  TD50: 320 mg/kg/day and 143 mg/kg/day
mouse, strain B6C3F1, males, by gavage, site: liver, lesion: hepatocellular adenoma + hepatocellular carcinoma + neoplastic nodule, dosed 103 weeks, study length 104 weeks
  TD50: 164 mg/kg/day
mouse, strain B6C3F1, males, by gavage, site: lung, lesion: alveolar/bronchiolar adenoma + alveolar/bronchiolar carcinoma, dosed 103 weeks, study length 104 weeks
  TD50: 194 mg/kg/day
rat, strain Fischer 344, females, by gavage, site: any site (literature study), lesion: several types, types named in the paper, dosed 103 weeks, study length 104 weeks
  TD50: 46.3 mg/kg/day (inactive)
rat, strain Fischer 344, males, by gavage, site: any site (literature study), lesion: several types, types named in the paper, dosed 103 weeks, study length 104 weeks
  TD50: 543 mg/kg/day (inactive)

## CCCl
mouse, strain B6C3F1, females, inhaled, site: all sites, lesion: malignant lymphoma, histiocytic type + malignant lymphoma, mixed type + malignant lymphoma, lymphocytic type + malignant lymph, dosed 100 weeks, study length 100 weeks
  TD50: 9960 mg/kg/day
mouse, strain B6C3F1, females, inhaled, site: any site (literature study), lesion: several types, types named in the paper, dosed 100 weeks, study length 100 weeks
  TD50: 1380 mg/kg/day
mouse, strain B6C3F1, females, inhaled, site: liver, lesion: hepatocellular adenoma + hepatocellular carcinoma + neoplastic nodule, dosed 100 weeks, study length 100 weeks
  TD50: 7220 mg/kg/day
mouse, strain B6C3F1, females, inhaled, site: liver, lesion: hepatocellular adenoma + hepatocellular carcinoma, dosed 100 weeks, study length 100 weeks
  TD50: 7220 mg/kg/day
mouse, strain B6C3F1, females, inhaled, site: liver, lesion: hepatocellular carcinoma, dosed 100 weeks, study length 100 weeks
  TD50: 7580 mg/kg/day
mouse, strain B6C3F1, females, inhaled, site: lung, lesion: alveolar/bronchiolar adenoma + alveolar/bronchiolar carcinoma, dosed 100 weeks, study length 100 weeks
  TD50: 8640 mg/kg/day
mouse, strain B6C3F1, females, inhaled, site: uterus, lesion: carcinoma, dosed 100 weeks, study length 100 weeks
  TD50: 1810 mg/kg/day
mouse, strain B6C3F1, males, inhaled, site: any site (literature study), lesion: several types, types named in the paper, dosed 100 weeks, study length 100 weeks
  TD50: 10100 mg/kg/day
mouse, strain B6C3F1, males, inhaled, site: liver, lesion: hepatocellular adenoma + hepatocellular carcinoma + neoplastic nodule, dosed 100 weeks, study length 100 weeks
  TD50: 34100 mg/kg/day
mouse, strain B6C3F1, males, inhaled, site: lung, lesion: alveolar/bronchiolar adenoma + alveolar/bronchiolar carcinoma, dosed 100 weeks, study length 100 weeks
  TD50: 9910 mg/kg/day
mouse, strain B6C3F1, males, inhaled, site: lung, lesion: alveolar/bronchiolar adenoma, dosed 100 weeks, study length 100 weeks
  TD50: 12700 mg/kg/day
rat, strain Fischer 344, females, inhaled, site: any site (literature study), lesion: several types, types named in the paper, dosed 102 weeks, study length 105 weeks
  TD50: 2660 mg/kg/day
rat, strain Fischer 344, females, inhaled, site: brain, lesion: astrocytoma, malignant, dosed 102 weeks, study length 105 weeks
  TD50: 21000 mg/kg/day
rat, strain Fischer 344, females, inhaled, site: uterus, lesion: endometrial stromal polyp, dosed 102 weeks, study length 105 weeks
  TD50: 10200 mg/kg/day
rat, strain Fischer 344, males, inhaled, site: any site (literature study), lesion: several types, types named in the paper, dosed 102 weeks, study length 105 weeks
  TD50: 1600 mg/kg/day
rat, strain Fischer 344, males, inhaled, site: liver, lesion: hepatocellular adenoma + hepatocellular carcinoma + neoplastic nodule, dosed 102 weeks, study length 105 weeks
  TD50: 47700 mg/kg/day
rat, strain Fischer 344, males, inhaled, site: skin, lesion: basal-cell carcinoma + sebaceous adenoma + trichoepithelioma, dosed 102 weeks, study length 105 weeks
  TD50: 3210 mg/kg/day
rat, strain Fischer 344, males, inhaled, site: skin, lesion: basal-cell carcinoma, dosed 102 weeks, study length 105 weeks
  TD50: 4970 mg/kg/day

## CC(=O)CN(N=O)C(=O)NCCCl
hamster, strain Syrian Golden, females, by gavage, site: spleen, lesion: all vascular tumors, dosed 43 weeks, study length 75 weeks
  TD50: 0.774 mg/kg/day
hamster, strain Syrian Golden, males, by gavage, site: spleen, lesion: hemangiosarcoma, dosed 43 weeks, study length 75 weeks
  TD50: 0.216 mg/kg/day
rat, strain Fischer 344, females, by gavage, site: liver, lesion: one or several types, types not named, dosed 30 weeks, study length 104 weeks
  TD50: 1.36 mg/kg/day
rat, strain Fischer 344, females, by gavage, site: nervous system, lesion: one or several types, types not named, dosed 30 weeks, study length 104 weeks
  TD50: 4.49 mg/kg/day
rat, strain Fischer 344, females, in drinking water, site: lung, lesion: one or several types, types not named, dosed 30 weeks, study length 104 weeks
  TD50: 4.49 mg/kg/day
rat, strain Fischer 344, females, in drinking water, site: nervous system, lesion: one or several types, types not named, dosed 30 weeks, study length 104 weeks
  TD50: 4.49 mg/kg/day
rat, strain Fischer 344, males, by gavage, site: lung, lesion: one or several types, types not named, dosed 30 weeks, study length 104 weeks
  TD50: 3.14 mg/kg/day
rat, strain Fischer 344, males, by gavage, site: nervous system, lesion: one or several types, types not named, dosed 30 weeks, study length 104 weeks
  TD50: 0.951 mg/kg/day
rat, strain Fischer 344, males, in drinking water, site: liver, lesion: one or several types, types not named, dosed 30 weeks, study length 104 weeks
  TD50: 3.14 mg/kg/day
rat, strain Fischer 344, males, in drinking water, site: lung, lesion: one or several types, types not named, dosed 30 weeks, study length 104 weeks
  TD50: 1.5 mg/kg/day
rat, strain Fischer 344, males, in drinking water, site: nervous system, lesion: one or several types, types not named, dosed 30 weeks, study length 104 weeks
  TD50: 3.14 mg/kg/day

## CN(C)CCOc1ccc(/C(=C(/CCCl)c2ccccc2)c2ccccc2)cc1
rat, strain Charles River CD (Sprague-Dawley), females, by gavage, site: liver, lesion: hepatocellular adenoma, dosed 52 weeks, study length 52 weeks
  carcinogen call: negative (inactive)
rat, strain Charles River CD (Sprague-Dawley), females, by gavage, site: liver, lesion: hepatocellular adenoma, dosed 52 weeks, study length 65 weeks
  carcinogen call: negative (inactive)
rat, strain Charles River CD (Sprague-Dawley), females, by gavage, site: liver, lesion: hepatocellular carcinoma, dosed 52 weeks, study length 52 weeks
  carcinogen call: negative (inactive)
rat, strain Charles River CD (Sprague-Dawley), females, by gavage, site: liver, lesion: hepatocellular carcinoma, dosed 52 weeks, study length 65 weeks
  carcinogen call: negative (inactive)
rat, strain Sprague-Dawley, females, by gavage, site: liver, lesion: one or several types, types not named, dosed 52 weeks, study length 52 weeks
  carcinogen call: negative (inactive)
rat, strain Sprague-Dawley, females, by gavage, site: liver, lesion: one or several types, types not named, dosed 52 weeks, study length 65 weeks
  carcinogen call: negative (inactive)
rat, strain Sprague-Dawley, females, by gavage, site: liver, lesion: several types, types named in the paper, dosed 52 weeks, study length 52 weeks
  carcinogen call: negative (inactive)
rat, strain Sprague-Dawley, females, by gavage, site: liver, lesion: several types, types named in the paper, dosed 52 weeks, study length 65 weeks
  carcinogen call: negative (inactive)
rat, strain Sprague-Dawley, females, in feed, site: liver, lesion: hepatocellular adenoma, dosed 104 weeks, study length 104 weeks
  TD50: 344 mg/kg/day (inactive)
rat, strain Sprague-Dawley, females, in feed, site: liver, lesion: hepatocellular carcinoma, dosed 104 weeks, study length 104 weeks
  carcinogen call: negative (inactive)
rat, strain Sprague-Dawley, females, in feed, site: mammary gland, lesion: one or several types, types not named, dosed 104 weeks, study length 104 weeks
  carcinogen call: negative (inactive)
rat, strain Sprague-Dawley, females, in feed, site: pituitary gland, lesion: one or several types, types not named, dosed 104 weeks, study length 104 weeks
  carcinogen call: negative (inactive)
rat, strain Sprague-Dawley, males, in feed, site: liver, lesion: hepatocellular adenoma, dosed 104 weeks, study length 104 weeks
  carcinogen call: negative (inactive)
rat, strain Sprague-Dawley, males, in feed, site: liver, lesion: hepatocellular carcinoma, dosed 104 weeks, study length 104 weeks
  TD50: 1040 mg/kg/day (inactive)
rat, strain Sprague-Dawley, males, in feed, site: mammary gland, lesion: one or several types, types not named, dosed 104 weeks, study length 104 weeks
  carcinogen call: negative (inactive)
rat, strain Sprague-Dawley, males, in feed, site: pituitary gland, lesion: one or several types, types not named, dosed 104 weeks, study length 104 weeks
  carcinogen call: negative (inactive)
rat, strain Sprague-Dawley, males, in feed, site: testis, lesion: one or several types, types not named, dosed 104 weeks, study length 104 weeks
  carcinogen call: negative (inactive)

From PubChem BioAssay AID1745844 (Carcinogenic Potency Database (CPDB), 2022)
